# What was measured:
# Type in all cases: cell-based
# [1] = system: Wnt activity (Sp5-Luc reporter, SW480 colon carcinoma cells); test: Screening assay for Wnt activity: Sp5-Luc reporter gene assay in SW480 cells; settings: Homo sapiens; for EC50: SW480 Sp5-Luc reporter, overnight incubation; for inhibition at 10 µM: SW480, read-out: percent inhibition at 10 μM
# How it was run: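 SW480 colon carcinoma cells stably carrying Sp5 promoter (eight TCF/LEF sites)-driven firefly luciferase, plated at 4,000 cells/well in 1% FBS medium and incubated overnight at 37° C. Luminescence normalised to DMSO-only cells; EC50 from four-parameter variable-slope nonlinear regression.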
# SW480 colon cancer cells = test: Cell viability assay (CellTiter-Blue) in SW480 colon cancer cells; settings: Homo sapiens; for EC50: 96 h, SW480 cell viability, four days incubation; for inhibition at 10 µM: SW480, read-out: percent inhibition at 10 μM
# How it was run: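 Fluorescence from resazurin reduced to resorufin by metabolically active cells was the read-out, taken after ~3 h with CellTiter-Blue.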
# [2] = system: Primary human fibroblasts derived from IPF patients (LL29 cells); test: Inhibition of the fibrotic process: αSMA staining in TGF-β1-treated LL29 fibroblasts; settings: Fibroblast; for EC50: 96 h, LL29 cells, TGF-β1 20 ng/mL, 4 days, % αSMA-positive cells; for inhibition at 10 µM: read-out: percent inhibition at 10 μM
# How it was run: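 LL29 IPF-patient lung fibroblasts plated in F12 with 1% FBS, treated with TGF-β1 plus compound; TGF-β1/DMSO wells served as controls. After 4 days incubation, SYTOX green (1 μM final) added for 30 min at room temperature; αSMA staining used as fibrosis read-out.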
# [3] = system: primary human mesenchymal stem cells (hMSCs); test: Induction of chondrogenesis in hMSCs (nodule imaging, Rhodamine B / Nile Red); settings: 6 days; for EC50: concentration required to induce 50% levels of chondrogenesis vs TGF-β3, read-out: Conc (nM) of 50% TGF-β3 activity; for Emax: relative to TGF-β3 (10 ng/mL) positive control, read-out: Max. Activity as % TGF-β3 activity
# Excerpt: Representative compounds were screened using primary human mesenchymal stem cells (hMSCs) to determine their ability to induce chondrogenesis (process by which cartilage is developed).
# Primary human mesenchymal stem cells (hMSCs) were purchased from Lonza (Walkersville, Md.) and expanded in Mesenchymal Stem Cell Growth Media (Lonza). Cells between passage 3 and 6 were used for the experiments.
# Area of nodules in each well was normalized to the average of 3 DMSO treated wells on the same plate using Excel (Microsoft Inc.). The normalized averages (fold change over DMSO) of 2 or 3 replicate wells for each compound concentration were calculated. Due to solubility limitations of some of the compounds, curve fitting was incomplete leading to inaccurate EC50 determinations.
# Using TGF-β3 as a positive control, the concentration of representative compounds required to induce 50% levels of chondrogenesis is reported. In addition, the maximum activity of each compound and the respective dose that each compound reached maximum chondrogenesis activity is reported.
# IL-6 (THP-1 cells) = test: IL-6 inhibition in THP-1 monocytes (HTRF); settings: Homo sapiens; for EC50: IL-6 inhibition, THP-1 cells, HTRF, 10-point dose-response starting from 10 μM; for inhibition at 10 µM: THP-1, read-out: percentage in parentheses printed under EC50 >10
# How it was run: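 THP-1 cells serum-reduced (1% FBS, 24 h), plated 5000/well, stimulated with 500 ng/mL […] after 2 h and incubated a further 22 h at 37 °C. Secreted IL-6 quantified by HTRF (665/620 nm ratio), normalized to DMSO; EC50 from four-parameter fit, duplicates.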
EC50 [1] [nM],EC50 (SW480 colon cancer cells) [nM],EC50 [3] [nM],EC50 (IL-6 (THP-1 cells)) [nM],SMILES,EC50 [2] [nM],Emax [3] [%],inhibition at 10 µM [1] [%],inhibition at 10 µM (SW480 colon cancer cells) [%],inhibition at 10 µM (IL-6 (THP-1 cells)) [%],inhibition at 10 µM [2] [%]
2200,1100,10,8270,"COc1cncc(-c2ccc3[nH]nc(-c4cc5c(-c6ccoc6)cncc5[nH]4)c3c2)c1 [Compound 692, 3-(4-(Furan-3-yl)-1H-pyrrolo[2,3-c]pyridin-2-yl)-5-(5-methoxypyridin-3-yl)-1H-indazole]",728,170,–,–,–,–
377,279,2700,46,CC(C)CC(=O)Nc1cncc(-c2ccc3[nH]nc(-c4cc5c(N6CCCCC6)cncc5[nH]4)c3c2)c1 [Compound 170],550,113,–,–,–,–
554,1100,–,198,"CS(=O)(=O)NCc1cc(F)cc(-c2cncc3[nH]c(-c4n[nH]c5ccc(-c6cncc(NC(=O)C7CCC7)c6)cc45)cc23)c1 [Compound 497, N-(5-(3-(4-(3-Fluoro-5-(methylsulfonamidomethyl)phenyl)-1H-pyrrolo[2,3-c]pyridin-2-yl)-1H-indazol-5-yl)pyridin-3-yl)cyclobutanecarboxamide]",5430,15,–,–,–,–
> 10000,> 10000,100,> 10000,"CN1CCN(c2cncc3[nH]c(-c4n[nH]c5ccc(-c6cncc(NC(=O)CC7CCNCC7)c6)cc45)cc23)CC1 [Compound 641, N-(5-(3-(4-(4-Methylpiperazin-1-yl)-1H-pyrrolo[2,3-c]pyridin-2-yl)-1H-indazol-5-yl)pyridin-3-yl)-2-(piperidin-4-yl)acetamide]",6440,289,6.7,11.9,43.7,–
3230,4150,2700,5430,"Fc1cccc(-c2cncc3[nH]c(-c4n[nH]c5ccc(C6CCNCC6)cc45)cc23)c1 [Compound 505, 3-(4-(3-Fluorophenyl)-1H-pyrrolo[2,3-c]pyridin-2-yl)-5-(piperidin-4-yl)-1H-indazole]",2500,51,–,–,–,–
670,355,–,2420,"Fc1cccc(-c2cncc3[nH]c(-c4n[nH]c5ccc(-c6ccccn6)cc45)cc23)c1 [Compound 28, 3-(4-(3-Fluorophenyl)-1H-pyrrolo[2,3-c]pyridin-2-yl)-5-(pyridin-2-yl)-1H-indazole]",460,26,–,–,–,–
1400,2030,–,209,"O=C(Nc1cncc(-c2ccc3[nH]nc(-c4cc5c(-c6cccnc6)cncc5[nH]4)c3c2)c1)C1CCCC1 [Compound 106, N-(5-(3-(4-(Pyridin-3-yl)-1H-pyrrolo[2,3-c]pyridin-2-yl)-1H-indazol-5-yl)pyridin-3-yl)cyclopentanecarboxamide]",2320,45,–,–,–,–
> 10000,4720,100,7510,"CCNCc1cncc(-c2ccc3[nH]nc(-c4cc5c(-c6ccccc6F)cncc5[nH]4)c3c2)c1 [Compound 62, N-((5-(3-(4-(2-Fluorophenyl)-1H-pyrrolo[2,3-c]pyridin-2-yl)-1H-indazol-5-yl)pyridin-3-yl)methyl)ethanamine]",9730,86,51,–,–,–
45,94,–,45,CCC(=O)Nc1cncc(-c2ccc3[nH]nc(-c4cc5c(-c6cccc(F)c6)cncc5[nH]4)c3c2)c1 [Compound 1],62,34,–,–,–,–
526,1280,900,353,"FC1(F)CCN(Cc2cncc(-c3ccc4[nH]nc(-c5cc6c(-c7cccnc7)cncc6[nH]5)c4c3)c2)C1 [Compound 110, 5-(5-((3,3-Difluoropyrrolidin-1-yl)methyl)pyridin-3-yl)-3-(4-(pyridin-3-yl)-1H-pyrrolo[2,3-c]pyridin-2-yl)-1H-indazole]",337,256,–,–,–,–
> 10000,1600,2700,> 10000,"CN(C)Cc1cncc(-c2ccc3[nH]nc(-c4cc5c(-c6cccc(F)c6)cncc5[nH]4)c3c2F)c1 [Compound 993, 1-(5-(4-Fluoro-3-(4-(3-fluorophenyl)-1H-pyrrolo[2,3-c]pyridin-2-yl)-1H-indazol-5-yl)pyridin-3-yl)-N,N-dimethylmethanamine]",1700,114,46.8,–,18.1,–
191,109,300,26,"Cc1ccncc1-c1ccc2[nH]nc(-c3cc4ccncc4[nH]3)c2c1 [Compound 257, 5-(4-Methylpyridin-3-yl)-3-(1H-pyrrolo[2,3-c]pyridin-2-yl)-1H-indazole]",484,161,–,–,–,–
395,> 10000,–,765,"O=C(Nc1cncc(-c2ccc3[nH]nc(-c4cc5c(-c6ccncc6)cncc5[nH]4)c3c2)c1)C1CC1 [Compound 132, N-(5-(3-(4-(Pyridin-4-yl)-1H-pyrrolo[2,3-c]pyridin-2-yl)-1H-indazol-5-yl)pyridin-3-yl)cyclopropanecarboxamide]",> 10000,37,–,20.6,–,35.6
3340,3630,30,3590,CN1CCN(c2cncc3[nH]c(-c4n[nH]c5ccc(-c6cncc(CNCc7ccccc7)c6)cc45)cc23)CC1 [Compound 248],1160,101,–,–,–,–
960,294,–,74,"CN(C)Cc1cncc(-c2cc3c(-c4cc5c(-c6cccc(F)c6)cncc5[nH]4)n[nH]c3cc2F)c1 [Compound 992, 1-(5-(6-Fluoro-3-(4-(3-fluorophenyl)-1H-pyrrolo[2,3-c]pyridin-2-yl)-1H-indazol-5-yl)pyridin-3-yl)-N,N-dimethylmethanamine]",920,21,–,–,–,–
1280,420,10,75,"CN(C)Cc1cncc(-c2ccc3[nH]nc(-c4cc5c(-c6cccc(F)c6)cncc5[nH]4)c3c2)c1 [Compound 13, 1-(5-(3-(4-(3-Fluorophenyl)-1H-pyrrolo[2,3-c]pyridin-2-yl)-1H-indazol-5-yl)pyridin-3-yl)-N,N-dimethylmethanamine]",952,193,–,–,–,–
3710,1040,–,3710,"CN(C)Cc1cncc(-c2cc(F)c3[nH]nc(-c4cc5c(-c6cccc(F)c6)cncc5[nH]4)c3c2)c1 [Compound 991, 1-(5-(7-Fluoro-3-(4-(3-fluorophenyl)-1H-pyrrolo[2,3-c]pyridin-2-yl)-1H-indazol-5-yl)pyridin-3-yl)-N,N-dimethylmethanamine]",1230,38,–,–,–,–
4060,4020,–,1370,"CN1CCN(c2cncc3[nH]c(-c4n[nH]c5ccc(-c6cccnc6)cc45)cc23)CC1 [Compound 228, 3-(4-(4-Methylpiperazin-1-yl)-1H-pyrrolo[2,3-c]pyridin-2-yl)-5-(pyridin-3-yl)-1H-indazole]",774,20,–,–,–,–
670,836,–,128,"CC(C)Nc1cncc(-c2ccc3[nH]nc(-c4cc5c(-c6cccnc6)cncc5[nH]4)c3c2)c1 [Compound 96, N-Isopropyl-5-(3-(4-(pyridin-3-yl)-1H-pyrrolo[2,3-c]pyridin-2-yl)-1H-indazol-5-yl)pyridin-3-amine]",315,42,–,–,–,–
875,> 10000,30,> 10000,CC(C)CC(=O)Nc1cncc(-c2ccc3[nH]nc(-c4cc5c(-c6ccncc6)cncc5[nH]4)c3c2)c1 [Compound 114],> 10000,70,–,24.8,15.9,47
